The results in this text go back to patent US12011444B2, “N-substituted indole derivatives as PGE2 receptor modulators” (Idorsia Pharmaceuticals Ltd, priority 2015, dated 2024).

In assay [1] the target is EP4 (Homo sapiens (Human), UniProt P35408). In words: hEP4 cAMP assay (BT549 breast cancer cells, HTRF cAMP). The class given is cell-based. The conditions noted are these: antagonistic activity; mean values where measured multiple times. The procedure: Plate is pre-incubated 45 minutes at room temperature. Subsequently, 2.5 microliters of PGE2 (final conc. 6 nM) are transferred into the assay plate. Plate is incubated 30 minutes at room temperature.

The target of assay [2] is EP2 (Homo sapiens (Human), UniProt P43116).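 Also: antagonism of PGE2-stimulated cAMP accumulation in SF295 human glioblastoma cells with endogenous EP2, cAMP read by HTRF, expressed relative to DMSO control.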
Chain of EP2 (P43116 whole entry): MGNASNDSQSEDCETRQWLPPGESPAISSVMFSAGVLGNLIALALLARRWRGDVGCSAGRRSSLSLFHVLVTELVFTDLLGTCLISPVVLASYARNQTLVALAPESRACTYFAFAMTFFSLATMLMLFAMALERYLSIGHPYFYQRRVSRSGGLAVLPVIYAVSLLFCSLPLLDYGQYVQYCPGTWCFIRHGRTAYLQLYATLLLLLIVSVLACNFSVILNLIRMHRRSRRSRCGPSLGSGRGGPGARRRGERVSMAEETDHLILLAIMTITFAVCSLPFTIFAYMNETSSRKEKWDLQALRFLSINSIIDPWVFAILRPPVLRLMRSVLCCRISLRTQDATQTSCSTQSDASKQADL

Chain of EP4 (P35408 whole entry): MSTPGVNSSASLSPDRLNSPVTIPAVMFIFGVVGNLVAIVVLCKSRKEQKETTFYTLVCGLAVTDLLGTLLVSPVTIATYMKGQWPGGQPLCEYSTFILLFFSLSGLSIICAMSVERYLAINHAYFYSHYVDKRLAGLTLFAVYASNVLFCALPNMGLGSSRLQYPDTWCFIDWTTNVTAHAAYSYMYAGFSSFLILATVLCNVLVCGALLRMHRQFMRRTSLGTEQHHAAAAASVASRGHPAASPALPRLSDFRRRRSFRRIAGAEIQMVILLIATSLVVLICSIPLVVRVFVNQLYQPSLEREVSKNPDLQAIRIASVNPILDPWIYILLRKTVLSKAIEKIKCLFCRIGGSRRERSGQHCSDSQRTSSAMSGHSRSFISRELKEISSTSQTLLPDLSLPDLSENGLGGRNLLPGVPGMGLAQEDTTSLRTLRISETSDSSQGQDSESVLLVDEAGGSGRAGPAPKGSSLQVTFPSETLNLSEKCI

As for `COc1ccc(F)c2c1cc(C)n2CCNc1cc(-c2ccc(-c3nc(N)sc3C)cc2)ncn1` [compound 458, {6-[4-(2-Amino-5-methyl-thiazol-4-yl)-phenyl]-pyrimidin-4-yl}-[2-(7-fluoro-4-methoxy-2-methyl-indol-1-yl)-ethyl]-amine], the figures for the IC50 in assay [1] and in assay [2] were 74 nM and 25 nM, respectively.
Take `COc1cnc(-c2ccc(-c3cc(NCCn4c(C)cc5c(OC)cc(F)cc54)ncn3)cc2)nc1` [Example 757, [2-(6-Fluoro-4-methoxy-2-methyl-indol-1-yl)-ethyl]-{6-[4-(5-methoxy-pyrimidin-2-yl)-phenyl]-pyrimidin-4-yl}-amine]: the IC50 turned out to be 345 nM in assay [1] and 44 nM in assay [2].
For `COc1cc(F)c(F)c2c1cc(C)n2CCNc1cc(-c2ccc(-c3oc(CCC(=O)O)nc3C)cc2)ncn1` [compound 655], the IC50 was 191 nM in assay [1] and 152 nM in assay [2].
On to `CCS(=O)(=O)Nc1cc(-c2cc(NCCn3c(C)cc4c(C)ccc(F)c43)ncn2)ccc1C(=O)O` [compound 602], for which the results for the IC50 in assay [1] and in assay [2] were 805 nM and 163 nM, respectively.
With `COc1cc(F)cc2c1cc(C)n2CCNc1cc(-c2ccc(-c3csc(C(=O)O)n3)cc2)ncn1` [compound 578], the IC50 was found to be 52 nM in assay [1] and 9 nM in assay [2].
The corresponding values for `Cc1cc(F)cc2c1cc(C)n2CCNc1cc(-c2ccc(C(=O)O)c(CC(C)C)c2)ncn1` [compound 422] are 148 nM and 34 nM.
Turning to `CCCc1cc(-c2cc(NCCn3c(C)cc4c(OC)ccc(F)c43)ncn2)cc(OCC)c1C(=O)O` [compound 634], the results for the 50% inhibitory concentration (IC50) in assay [1] and in assay [2] were 196 nM and 27 nM, respectively.
With `COc1cc(F)cc2c1cc(C)n2CCNc1cc(-c2ccc(C(=O)O)c(OC(F)F)c2)ncn1` [compound 630], the IC50 in assay [1] amounted to 142 nM; in assay [2] it was 6 nM.
For the molecule `CCCc1cc(-c2cc(NCCn3c(C)cc4c(C)ccc(F)c43)ncn2)cc(Cl)c1C(=O)O` [compound 413], the IC50 in assay [1] worked out at 55 nM; in assay [2], 29 nM.
Regarding `COc1cc(F)cc2c1cc(C)n2CCNc1cc(-c2ccc(-c3ccccn3)cc2)ncn1` [compound 727], the IC50 was determined as 238 nM in assay [1] and 34 nM in assay [2].
For `CCOc1cc(-c2cc(NCCn3c(C)cc4c(C)ccc(F)c43)ncn2)ccc1C(=O)NOCc1ccccc1` [Example 768, N-Benzyloxy-2-ethoxy-4-{6-[2-(7-fluoro-2,4-dimethyl-indol-1-yl)-ethylamino]-pyrimidin-4-yl}-benzamide], the IC50 in assay [1] amounted to 928 nM; in assay [2], 35 nM.
Take `CCOc1cc(-c2cc(NCCn3c(Cl)cc4c(C)ccc(F)c43)ncn2)ccc1C(=O)O` [Example 779, 4-{6-[2-(2-Chloro-7-fluoro-4-methyl-indol-1-yl)-ethylamino]-pyrimidin-4-yl}-2-ethoxy-benzoic acid]: the IC50 in assay [1] came to 242 nM; in assay [2], 28 nM.
Regarding `Cc1cc(F)cc2c1cc(C)n2CCNc1cc(-c2ccc(C(=O)O)c(OCC(C)C)c2)ncn1` [compound 526], the IC50 in assay [1] worked out at 230 nM; in assay [2], 10 nM.
With `COc1ccc(F)c2c1cc(C)n2CCNc1cc(-c2ccc(C(=O)O)c3c2ccn3C)ncn1` [compound 470], the IC50 in assay [1] is 735 nM; in assay [2] it was 63 nM.
The corresponding values for `CCOc1cc(-c2cc(NCCn3c(Cl)cc4c(OC)ccc(F)c43)ncn2)ccc1C(=O)O` [Example 776, 4-{6-[2-(2-Chloro-7-fluoro-4-methoxy-indol-1-yl)-ethylamino]-pyrimidin-4-yl}-2-ethoxy-benzoic acid] are 44 nM and 6 nM.
For `Cc1cc2ccccc2n1CCNc1cc(-c2ccc3c(=O)[nH]oc3c2)ncn1` [Example 774, 6-{6-[2-(2-Methyl-indol-1-yl)-ethylamino]-pyrimidin-4-yl}-benzo[d]isoxazol-3-one], the values for the IC50 in assay [1] and in assay [2] were 637 nM and 4 nM, respectively.
As to `Cc1nc(NCCn2c(C)cc3c(C)cc(F)cc32)cc(-c2ccc(C(=O)O)c(CC(C)C)c2)n1` [compound 503], the figures for the IC50 in assay [1] and in assay [2] were 499 nM and 58 nM, respectively.
As to `CCNc1cc(-c2cc(NCCn3c(C)cc4c(OC)ccc(F)c43)ncn2)ccc1C(=O)O` [compound 397], the values for the IC50 in assay [1] and in assay [2] were 20 nM and 1 nM, respectively.
Turning to `Cc1ccc(F)c2c1cc(C)n2CCNc1cc(-c2ccc(C(=O)O)c(NS(C)(=O)=O)c2)ncn1` [compound 479], the IC50 in assay [1] is 233 nM; in assay [2] it was 127 nM.
`COc1cc(-c2cc(NCCn3c(C)cc4c(OC)ccc(Cl)c43)ncn2)cc(C)c1C(=O)O` [compound 404]: the IC50 is 448 nM in assay [1] and 96 nM in assay [2].
As to `Cc1nc(CCC(=O)O)oc1-c1ccc(-c2cc(NCCn3c(C)cc4c(C)cc(F)c(F)c43)ncn2)cc1` [compound 653], the IC50 in assay [1] is 527 nM; in assay [2], 428 nM.
Consider `COc1cc(F)cc2c1cc(C)n2CCNc1cc(-c2ccc(-c3oncc3C)cc2)ncn1` [compound 736, [2-(6-Fluoro-4-methoxy-2-methyl-indol-1-yl)-ethyl]-{6-[4-(4-methyl-isoxazol-5-yl)-phenyl]-pyrimidin-4-yl}-amine], for which the IC50 in assay [1] is 399 nM; in assay [2] it was 39 nM.
For `COc1cc(F)c(F)c2c1cc(C)n2CCNc1cc(-c2cc(C(F)(F)F)c(C(=O)O)s2)ncn1` [compound 525], in that order: 14 nM and 38 nM.
Take `Cc1ccc(F)c2c1cc(C)n2CCNc1cc(-c2ccc3[nH]ccc3c2)ncn1` [compound 698, [2-(7-Fluoro-2,4-dimethyl-indol-1-yl)-ethyl]-[6-(1H-indol-5-yl)-pyrimidin-4-yl]-amine]: the IC50 in assay [1] was found to be 79 nM; in assay [2] it was 21 nM.
Consider `COc1cc(F)cc2c1cc(C)n2CCNc1cc(-c2ccc(C(=O)O)c(NCC(F)(F)F)c2)ncn1` [compound 587, 4-{6-[2-(6-Fluoro-4-methoxy-2-methyl-indol-1-yl)-ethylamino]-pyrimidin-4-yl}-2-(2,2,2-trifluoro-ethylamino)-benzoic acid], for which the IC50 in assay [1] was 106 nM; in assay [2] it was 2 nM.
For the molecule `CCOc1cc(-c2cc(NCCn3c(C)cc4c(C)cc(F)c(F)c43)ncn2)ccc1C(=O)O` [compound 431], the IC50 in assay [1] was 191 nM; in assay [2] it was 51 nM.
Take `COc1cc(F)cc2c1cc(C)n2CCNc1cc(-c2ccc(C(=O)O)c(C(C)(C)C)c2)ncn1` [compound 528]: the IC50 in assay [1] was found to be 151 nM; in assay [2], 119 nM.
For `COc1ccc(F)c2c1cc(C)n2CCNc1cc(-c2ccc(-n3nc(C)cc3C)cc2)ncn1` [compound 459], in that order: 739 nM and 62 nM.
Consider `Cc1cc(F)cc2c1cc(C)n2CCNc1cc(-c2ccc(-c3nc(C(=O)O)cs3)cc2)ncn1` [compound 545], for which the IC50 in assay [1] is 119 nM; in assay [2], 29 nM.
Turning to `COc1ccc(F)c2c1cc(C)n2CCNc1cc(-c2ccc(S(N)(=O)=O)c(C(F)(F)F)c2)ncn1` [compound 567, 4-{6-[2-(7-Fluoro-4-methoxy-2-methyl-indol-1-yl)-ethylamino]-pyrimidin-4-yl}-2-trifluoromethyl-benzenesulfonamide], the IC50 in assay [1] was found to be 89 nM; in assay [2], 17 nM.
Turning to `COc1cc(F)cc2c1cc(C)n2CCNc1cc(-c2ccc(C(=O)CC#N)cc2)ncn1` [compound 709, 3-(4-{6-[2-(6-Fluoro-4-methoxy-2-methyl-indol-1-yl)-ethylamino]-pyrimidin-4-yl}-phenyl)-3-oxo-propionitrile], the IC50 in assay [1] was determined as 535 nM; in assay [2], 14 nM.
Regarding `COc1cc(-c2cc(NCCn3c(C)cc4c(OC)ccc(F)c43)ncn2)cc(Cl)c1C(=O)O` [compound 401], the half-inhibitory concentration (IC50) was 182 nM in assay [1] and 19 nM in assay [2].
The corresponding values for `CNc1nnc(-c2ccc(-c3cc(NCCn4c(C)cc5c(OC)cc(F)cc54)ncn3)cc2)s1` [compound 645] are 16 nM and 9 nM.
Turning to `COc1cccc2c1cc(C)n2CCNc1cc(-c2ccc(-c3csc(CC(N)=O)n3)cc2)ncn1` [Example 785, 2-[4-(4-{6-[2-(4-Methoxy-2-methyl-indol-1-yl)-ethylamino]-pyrimidin-4-yl}-phenyl)-thiazol-2-yl]-acetamide], the IC50 in assay [1] was 906 nM; in assay [2] it was 13 nM.
For the molecule `CCOc1cc(-c2cc(NCCn3c(C)cc4c(C)cc(F)cc43)ncn2)cc(F)c1-c1nnn[nH]1` [compound 660], the IC50 came out at 303 nM in assay [1] and 16 nM in assay [2].
The corresponding values for `CCOc1cc(-c2cc(NCCn3c(C)cc4c(OC)ccc(F)c43)ncn2)ccc1C(=O)NOC(C)C` [Example 770, 2-Ethoxy-4-{6-[2-(7-fluoro-4-methoxy-2-methyl-indol-1-yl)-ethylamino]-pyrimidin-4-yl}-N-isopropoxy-benzamide] are 374 nM and 16 nM.
Take `Cc1ccc(F)c2c1cc(C)n2CCNc1cc(-c2ccc(-c3nc(C(=O)O)cs3)cc2)ncn1` [compound 546]: the IC50 in assay [1] was 57 nM; in assay [2], 16 nM.
Regarding `COc1cc(F)c(F)c2c1cc(C)n2CCNc1cc(-c2cc(Cl)c(C(=O)O)c(OCC(F)(F)F)c2)ncn1` [compound 722], the IC50 in assay [1] was 80 nM; in assay [2], 32 nM.
For the molecule `CCNc1cc(-c2cc(NCCn3c(C)cc4c(OC)ccc(Cl)c43)ncn2)ccc1-c1nnn[nH]1` [compound 666, [2-(7-Chloro-4-methoxy-2-methyl-indol-1-yl)-ethyl]-{6-[3-ethylamino-4-(1H-tetrazol-5-yl)-phenyl]-pyrimidin-4-yl}-amine], the results for the IC50 in assay [1] and in assay [2] were 40 nM and 7 nM, respectively.
Turning to `CCOc1cc(-c2cc(NCCn3c(C)cc4ccccc43)ncn2)ccc1-c1nnn[nH]1` [compound 669], the IC50 is 644 nM in assay [1] and 2 nM in assay [2].
On to `COc1cc(F)c(F)c2c1cc(C)n2CCNc1cc(-c2ccc(-c3cncn3C)cc2)ncn1` [compound 641], for which the IC50 in assay [1] amounted to 153 nM; in assay [2] it was 114 nM.

The term IC50 denotes the concentration that inhibits the measured activity by half.
